Measured values taken from US6084072A, “Purified lectin and methods of use” (The Regents of the University of Michigan, priority 1993, dated 2000).

Test system: well differentiated colonic adenocarcinoma sections
Assay: Inhibition of lectin binding with hapten sugars on tissue sections
Parameters: species or system human; key to Labeling score: 4^+: Maximum labeling of the brown reaction product; 0: No staining of the slide compared to control sections; 1^+: trace or weak staining definitely not seen on control slides; 2+3^+: stronger staining, but definitely less than maximal
Procedure: Four micron paraffin embedded tissue sections attached to glass slides were deparaffinized by serial incubations in xylene (twice), absolute ethanol (thrice), 95% ethanol, 70% ethanol, water and finally equilibrated in phosphate buffered saline (PBS), pH 7.0, containing 0.1% bovine serum albumin (BSA) commercially available from Sigma Corp of St. Louis, Mo. The slides were blotted dry adjacent to the tissue sections, and biotinylated lectin was added at a concentration of 10 μg/ml (for ACA) and 20 μg/ml (for PNA) in a quantity sufficient to completely cover the hydrated tissue (100-2001 μl). The lectin was rinsed off after a 30 minute incubation by eight 2-second dips into phosphate buffered saline. The slides were again blotted, and the tissue covered with Streptavidin-horseradish peroxidase (HRP) obtained from Zymed Laboratories, San Francisco, Calif. at a concentration of 10 μg/ml for 30 minutes. The slides were rinsed as mentioned above, and the pigmented reaction product developed by the addition of a freshly prepared chromogen reagent solution prepared within two hours of use as follows.
3,3'-diaminobenzidine was aliqotted at 5 mg/mL in 0.01 M (Tris) tris hydroxy methyl amino methane saline, pH 7.5 and frozen at -70° C. until use. For use, the aliquot was thawed, diluted 1:10 in 0.01 M (Tris) tris hydroxy methyl amino methane saline pH 7.5, and 3.3 μL of 30% H2 O2 were added to each 5 ml. This solution was allowed to stand for 10 min, and 100-200 μl was applied to the tissue sections that had been incubated earlier with biotinylated lectin and Streptavidin-HRP. After 10 min, the slides were rinsed with albumin-free phosphate buffered saline. The tissues were briefly counterstained for 50 seconds with Gill's #3 hematoxylin bovine serum albumin, commercially available from Sigma Corp. of St. Louis, Mo., rinsed with water, and serially dehydrated using graded alcohols and xylene, and embedded in Permount, a trademarked, commercially available product of Allied-Fischer Scientific of Livonia, Mich.
The specificity of lectin binding was evaluated by preincubating the biotinylated lectin with inhibitory hapten sugar for 1-2 hours prior to its application to the tissue. In each instance, the reagents were prepared so that the final concentration of lectin on the slide was either 10 or 20 μg/ml and the hapten sugar was as indicated in the results. Galactose, lactose, GalNAc, and galactose-β1-3N-acetylgalactosamine-α-O-benzyl (T-antigen-α-O-benzyl) were also obtained from Sigma Corp.
The stained sections were examined with a light microscope using a 25× and 40× objective lenses and 10× eyepiece. Evaluation of lectin binding required the use of several approaches. First, the binding specificity was confirmed by coincubation of lectin with hapten sugars known to bind the lectin maximally. Maximum labeling of the brown reaction product was arbitrarily assigned a score 4^+. See Boland, C. R., Bresalier, R. S., and Roberts, J. A. "Assay of lectin binding sites in colonic cancer-associated mucins: comparison of fluorescence microscopy with a quantitative chromatographic technique." J. Histochem. Cytochem., 36: 1329-1334, 1988. No staining of the slide compared to control sections (i.e., in which lectin was omitted from the staining procedure) was assigned a score of 0. Intermediate scores of 1^+ (trace or weak staining definitely not seen on control slides) and 2+3^+ (stronger staining, but definitely less than maximal) were assigned. […] See Boland. This method was used to confirm the binding specificity to known "positive" tissues and to evaluate changes in lectin binding after neuraminidase treatment.
Specimens of well differentiated colonic cancers were incubated with biotinylated lectins. Working concentrations on the slide were 10 μg/ml for ACA and 20 μg/ml for PNA. The hapten sugars galactose (Gal), N-acetylgalactosamine (GalNAc), and Galβ1,3GalNAc-α-O-benzyl (T-antigen) were used to inhibit lectin binding to the tissues. […]

With amaranthin the “GalNAc concentration that inhibited labeling” value was at least 250 mM, the “T-antigen concentration that inhibited labeling” value was at least 100 µM and the “galactose concentration required for partial inhibition of binding” value was 400 mM. The “lactose concentration required for partial inhibition of binding” value was 400 mM, the Labeling score (GalNAc 250 mM) was “Trace” and the Labeling score (T-antigen 100 μM) was 0. It also gave a Labeling score (T-antigen 200 μM) of 0 and a Labeling score (T-antigen 400 μM) of 0.
